How the values were obtained:
Assay in all cases: biochemical
Format in all cases: biochemical
[1] = target: T1, 382 unique human kinases (Homo sapiens, UniProt O60674, V617F); settings: kinase JAK2 (V617F), compound 10 uM; for remaining activity at 10 µM: read-out: % Enzyme Activity (relative to DMSO controls)
T1 construct: purchased Reaction Biology (HotSpot contract assay)

[2] = target: T2, 382 unique human kinases (Homo sapiens, UniProt Q16539); settings: kinase P38a/MAPK14, compound 10 uM; for remaining activity at 10 µM: read-out: % Enzyme Activity (relative to DMSO controls)
T2 construct: purchased Reaction Biology (HotSpot contract assay)

[3] = target: T3, 382 unique human kinases (Homo sapiens, UniProt P49674); settings: CK1epsilon, 10 uM; for remaining activity at 10 µM: read-out: % Enzyme Activity (relative to DMSO controls)
T3 construct: purchased Reaction Biology (HotSpot contract assay)

[4] = target: T4, 382 unique human kinases (Homo sapiens, UniProt O43353); settings: RIPK2, 10 uM; for remaining activity at 10 µM: read-out: % Enzyme Activity (relative to DMSO controls)
T4 construct: purchased Reaction Biology (HotSpot contract assay)

[5] = target: T5, 382 unique human kinases (Homo sapiens, UniProt P43403); settings: ZAP70, compound at 10 uM, duplicate values; for remaining activity at 10 µM: read-out: % Enzyme Activity (relative to DMSO controls)
T5 construct: purchased Reaction Biology (HotSpot contract assay)
T5 sequence (P43403 1-619): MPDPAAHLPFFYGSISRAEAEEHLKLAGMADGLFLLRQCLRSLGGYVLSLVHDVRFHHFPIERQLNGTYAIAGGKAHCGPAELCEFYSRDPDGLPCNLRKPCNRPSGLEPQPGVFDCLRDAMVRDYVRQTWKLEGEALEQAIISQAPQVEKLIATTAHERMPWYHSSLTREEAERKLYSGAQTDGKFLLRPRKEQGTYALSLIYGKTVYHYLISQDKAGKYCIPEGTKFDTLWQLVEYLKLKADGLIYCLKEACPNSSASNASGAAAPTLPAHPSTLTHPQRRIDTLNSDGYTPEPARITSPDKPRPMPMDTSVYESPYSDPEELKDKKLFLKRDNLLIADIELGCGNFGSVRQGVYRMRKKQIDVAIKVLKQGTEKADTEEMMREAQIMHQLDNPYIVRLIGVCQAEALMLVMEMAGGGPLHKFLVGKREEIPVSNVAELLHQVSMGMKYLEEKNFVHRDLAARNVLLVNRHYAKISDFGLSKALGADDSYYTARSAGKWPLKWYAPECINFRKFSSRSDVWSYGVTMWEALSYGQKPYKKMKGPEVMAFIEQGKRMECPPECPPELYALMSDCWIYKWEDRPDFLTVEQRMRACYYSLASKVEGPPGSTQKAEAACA

[6] = target: T6, 382 unique human kinases (Homo sapiens, UniProt Q86SG6); settings: NEK8, [ATP] 100 µM, compound 10 uM; for remaining activity at 10 µM: read-out: % Enzyme Activity (relative to DMSO controls)
T6 construct: purchased Reaction Biology (HotSpot contract assay)
T6 sequence (Q86SG6 1-692): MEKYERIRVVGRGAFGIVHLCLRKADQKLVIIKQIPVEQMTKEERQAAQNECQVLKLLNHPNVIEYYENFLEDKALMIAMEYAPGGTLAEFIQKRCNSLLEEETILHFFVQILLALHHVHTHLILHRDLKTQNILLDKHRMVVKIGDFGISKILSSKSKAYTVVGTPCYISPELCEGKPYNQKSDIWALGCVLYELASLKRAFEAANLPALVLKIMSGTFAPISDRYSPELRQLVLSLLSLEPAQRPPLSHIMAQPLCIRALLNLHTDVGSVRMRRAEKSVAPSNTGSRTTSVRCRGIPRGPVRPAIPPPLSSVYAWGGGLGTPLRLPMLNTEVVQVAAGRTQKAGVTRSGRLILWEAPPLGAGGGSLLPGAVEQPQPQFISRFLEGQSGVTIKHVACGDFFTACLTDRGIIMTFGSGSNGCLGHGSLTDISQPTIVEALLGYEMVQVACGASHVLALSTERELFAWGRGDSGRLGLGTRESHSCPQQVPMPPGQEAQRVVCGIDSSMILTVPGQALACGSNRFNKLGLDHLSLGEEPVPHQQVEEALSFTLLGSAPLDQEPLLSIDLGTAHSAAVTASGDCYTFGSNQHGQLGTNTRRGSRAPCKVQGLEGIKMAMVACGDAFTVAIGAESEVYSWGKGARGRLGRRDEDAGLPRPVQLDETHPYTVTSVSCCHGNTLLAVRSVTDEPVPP

[7] = target: T7, 382 unique human kinases (Homo sapiens, UniProt Q9UM73, G1269A); settings: ALK (G1269A), [ATP] 2.5 µM, compound 10 uM; for remaining activity at 10 µM: read-out: % Enzyme Activity (relative to DMSO controls)
T7 construct: purchased Reaction Biology (HotSpot contract assay)

[8] = target: T8, 382 unique human kinases (Homo sapiens, UniProt Q16832, N456S); settings: DDR2 (N456S), [ATP] 2.5 µM, compound 10 uM; for remaining activity at 10 µM: read-out: % Enzyme Activity (relative to DMSO controls)
T8 construct: purchased Reaction Biology (HotSpot contract assay)
T8 sequence (Q16832 22-855 N456S): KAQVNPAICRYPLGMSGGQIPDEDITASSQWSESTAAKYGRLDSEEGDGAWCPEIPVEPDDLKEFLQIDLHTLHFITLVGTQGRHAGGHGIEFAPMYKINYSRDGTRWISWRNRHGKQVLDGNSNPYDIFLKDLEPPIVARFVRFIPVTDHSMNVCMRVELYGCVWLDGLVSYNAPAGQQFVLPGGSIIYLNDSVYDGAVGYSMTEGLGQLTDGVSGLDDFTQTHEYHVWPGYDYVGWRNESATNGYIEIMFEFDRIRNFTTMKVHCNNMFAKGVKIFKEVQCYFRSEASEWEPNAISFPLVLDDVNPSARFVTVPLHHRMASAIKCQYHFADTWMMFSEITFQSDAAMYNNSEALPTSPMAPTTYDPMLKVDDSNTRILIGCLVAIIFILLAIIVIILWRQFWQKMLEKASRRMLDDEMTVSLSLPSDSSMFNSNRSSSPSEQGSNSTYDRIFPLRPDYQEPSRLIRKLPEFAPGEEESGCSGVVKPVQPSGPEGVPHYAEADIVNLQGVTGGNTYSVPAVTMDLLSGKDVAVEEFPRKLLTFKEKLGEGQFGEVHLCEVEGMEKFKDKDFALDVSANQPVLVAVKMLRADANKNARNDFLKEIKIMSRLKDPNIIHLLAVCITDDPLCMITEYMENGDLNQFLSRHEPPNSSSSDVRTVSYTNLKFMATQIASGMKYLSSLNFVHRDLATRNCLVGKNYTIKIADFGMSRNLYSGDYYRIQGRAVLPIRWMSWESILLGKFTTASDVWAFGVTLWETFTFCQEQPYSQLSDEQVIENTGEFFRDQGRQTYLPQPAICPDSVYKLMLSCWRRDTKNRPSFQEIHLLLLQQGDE

[9] = target: T9, 382 unique human kinases (Homo sapiens, UniProt P08581, D1228H); settings: c-MET (D1228H), 10 uM; for remaining activity at 10 µM: read-out: % Enzyme Activity (relative to DMSO controls)
T9 construct: purchased Reaction Biology (HotSpot contract assay)

[10] = target: T10, 382 unique human kinases (Homo sapiens, UniProt Q96SB4); settings: SRPK1, 10 uM; for remaining activity at 10 µM: read-out: % Enzyme Activity (relative to DMSO controls)
T10 construct: purchased Reaction Biology (HotSpot contract assay)
T10 sequence (Q96SB4 whole entry): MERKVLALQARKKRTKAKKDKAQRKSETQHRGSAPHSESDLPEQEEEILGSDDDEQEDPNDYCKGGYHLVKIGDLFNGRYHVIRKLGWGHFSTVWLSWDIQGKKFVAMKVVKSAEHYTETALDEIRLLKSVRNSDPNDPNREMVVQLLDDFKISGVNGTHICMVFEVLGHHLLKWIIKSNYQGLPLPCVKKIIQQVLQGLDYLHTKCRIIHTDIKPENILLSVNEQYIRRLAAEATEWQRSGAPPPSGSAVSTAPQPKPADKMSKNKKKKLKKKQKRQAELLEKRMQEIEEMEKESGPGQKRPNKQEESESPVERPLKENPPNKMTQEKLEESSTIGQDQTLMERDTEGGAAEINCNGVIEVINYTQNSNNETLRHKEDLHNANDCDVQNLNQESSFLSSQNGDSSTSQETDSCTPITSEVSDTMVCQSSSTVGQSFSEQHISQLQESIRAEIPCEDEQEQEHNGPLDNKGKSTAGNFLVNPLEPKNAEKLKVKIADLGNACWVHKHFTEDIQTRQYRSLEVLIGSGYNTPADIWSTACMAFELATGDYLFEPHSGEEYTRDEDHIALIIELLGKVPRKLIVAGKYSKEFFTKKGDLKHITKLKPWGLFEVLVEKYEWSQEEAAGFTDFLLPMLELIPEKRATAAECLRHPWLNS

T7 sequence (Q9UM73 19-1620 G1269A): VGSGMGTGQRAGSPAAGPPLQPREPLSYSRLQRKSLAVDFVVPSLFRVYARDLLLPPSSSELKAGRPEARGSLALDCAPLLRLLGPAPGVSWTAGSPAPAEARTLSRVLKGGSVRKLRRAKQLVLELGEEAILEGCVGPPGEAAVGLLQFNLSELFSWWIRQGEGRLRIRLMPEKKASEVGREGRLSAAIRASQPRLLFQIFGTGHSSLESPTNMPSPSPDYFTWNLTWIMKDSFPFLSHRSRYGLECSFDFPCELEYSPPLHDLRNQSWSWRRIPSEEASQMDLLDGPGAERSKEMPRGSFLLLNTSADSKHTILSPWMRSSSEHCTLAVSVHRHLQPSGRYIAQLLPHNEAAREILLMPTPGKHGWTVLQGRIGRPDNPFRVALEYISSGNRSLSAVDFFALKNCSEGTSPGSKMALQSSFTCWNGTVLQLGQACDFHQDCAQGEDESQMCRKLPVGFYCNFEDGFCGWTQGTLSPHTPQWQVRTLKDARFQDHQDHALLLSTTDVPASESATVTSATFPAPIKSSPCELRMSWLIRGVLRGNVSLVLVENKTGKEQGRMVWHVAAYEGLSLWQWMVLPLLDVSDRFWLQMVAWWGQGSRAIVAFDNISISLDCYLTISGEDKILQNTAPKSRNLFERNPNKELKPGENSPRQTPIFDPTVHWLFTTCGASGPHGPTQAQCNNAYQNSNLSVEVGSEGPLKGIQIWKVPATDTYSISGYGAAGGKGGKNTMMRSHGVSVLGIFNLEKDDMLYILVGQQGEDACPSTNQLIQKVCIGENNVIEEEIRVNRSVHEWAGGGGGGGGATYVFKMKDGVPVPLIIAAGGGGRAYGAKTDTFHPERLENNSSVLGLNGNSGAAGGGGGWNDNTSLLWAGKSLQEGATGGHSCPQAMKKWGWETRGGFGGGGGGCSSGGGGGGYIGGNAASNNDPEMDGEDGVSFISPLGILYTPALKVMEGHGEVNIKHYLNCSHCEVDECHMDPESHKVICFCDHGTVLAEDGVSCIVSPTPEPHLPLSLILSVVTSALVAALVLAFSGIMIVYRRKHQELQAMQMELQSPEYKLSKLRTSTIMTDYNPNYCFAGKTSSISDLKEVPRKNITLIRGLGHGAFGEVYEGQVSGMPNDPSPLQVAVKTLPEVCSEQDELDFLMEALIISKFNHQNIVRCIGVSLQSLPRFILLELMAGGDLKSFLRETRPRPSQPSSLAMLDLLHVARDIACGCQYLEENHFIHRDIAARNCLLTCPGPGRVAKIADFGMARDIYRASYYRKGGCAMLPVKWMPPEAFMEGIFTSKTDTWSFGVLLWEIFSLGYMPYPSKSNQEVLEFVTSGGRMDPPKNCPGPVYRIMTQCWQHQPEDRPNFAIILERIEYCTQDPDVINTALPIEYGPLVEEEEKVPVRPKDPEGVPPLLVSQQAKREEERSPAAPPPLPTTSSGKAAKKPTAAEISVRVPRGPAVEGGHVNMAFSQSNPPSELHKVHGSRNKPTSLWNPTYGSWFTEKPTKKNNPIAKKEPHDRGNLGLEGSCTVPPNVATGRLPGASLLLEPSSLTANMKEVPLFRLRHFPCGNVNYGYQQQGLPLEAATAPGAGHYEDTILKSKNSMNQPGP
T3 sequence (P49674 whole entry): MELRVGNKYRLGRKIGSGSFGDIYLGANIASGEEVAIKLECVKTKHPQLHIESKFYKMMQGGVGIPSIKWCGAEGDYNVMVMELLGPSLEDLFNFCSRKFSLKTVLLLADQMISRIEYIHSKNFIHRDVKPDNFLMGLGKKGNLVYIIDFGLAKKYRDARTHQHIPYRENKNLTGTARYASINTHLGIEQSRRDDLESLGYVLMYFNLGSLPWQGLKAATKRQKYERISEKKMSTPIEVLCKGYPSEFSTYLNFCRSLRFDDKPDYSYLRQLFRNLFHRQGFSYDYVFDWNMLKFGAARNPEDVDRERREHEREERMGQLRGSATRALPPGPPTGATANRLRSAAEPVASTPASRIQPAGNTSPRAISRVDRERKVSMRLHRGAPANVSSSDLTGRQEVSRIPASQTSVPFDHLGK
T1 sequence (O60674 whole entry V617F): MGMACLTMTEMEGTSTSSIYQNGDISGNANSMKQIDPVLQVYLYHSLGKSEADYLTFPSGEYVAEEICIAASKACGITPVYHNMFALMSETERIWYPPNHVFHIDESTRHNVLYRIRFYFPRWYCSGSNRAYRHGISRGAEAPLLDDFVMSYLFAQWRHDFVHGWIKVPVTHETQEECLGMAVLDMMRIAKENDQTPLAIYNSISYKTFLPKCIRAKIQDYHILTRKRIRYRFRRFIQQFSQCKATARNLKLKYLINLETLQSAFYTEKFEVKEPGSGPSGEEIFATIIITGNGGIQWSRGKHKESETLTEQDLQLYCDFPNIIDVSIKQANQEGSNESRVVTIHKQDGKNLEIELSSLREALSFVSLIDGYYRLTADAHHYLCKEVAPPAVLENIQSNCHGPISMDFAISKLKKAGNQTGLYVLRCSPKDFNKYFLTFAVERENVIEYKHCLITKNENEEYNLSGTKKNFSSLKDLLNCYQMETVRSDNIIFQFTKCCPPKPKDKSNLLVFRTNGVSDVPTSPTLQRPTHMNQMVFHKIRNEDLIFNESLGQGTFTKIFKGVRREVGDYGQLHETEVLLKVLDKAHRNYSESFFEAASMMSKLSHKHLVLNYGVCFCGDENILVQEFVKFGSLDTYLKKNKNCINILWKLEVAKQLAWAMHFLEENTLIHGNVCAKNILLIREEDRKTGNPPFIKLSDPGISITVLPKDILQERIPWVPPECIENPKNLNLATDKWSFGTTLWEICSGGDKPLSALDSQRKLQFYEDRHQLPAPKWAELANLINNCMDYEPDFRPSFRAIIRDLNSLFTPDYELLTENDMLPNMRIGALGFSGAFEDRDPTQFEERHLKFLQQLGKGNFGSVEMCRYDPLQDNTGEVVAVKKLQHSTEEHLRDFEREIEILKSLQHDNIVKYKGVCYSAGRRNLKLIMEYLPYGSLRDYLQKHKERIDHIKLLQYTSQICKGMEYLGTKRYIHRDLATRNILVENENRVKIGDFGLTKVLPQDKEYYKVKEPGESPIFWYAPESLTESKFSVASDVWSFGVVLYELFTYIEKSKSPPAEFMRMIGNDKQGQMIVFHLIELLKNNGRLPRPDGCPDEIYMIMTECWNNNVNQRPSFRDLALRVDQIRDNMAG
T2 sequence (Q16539 whole entry): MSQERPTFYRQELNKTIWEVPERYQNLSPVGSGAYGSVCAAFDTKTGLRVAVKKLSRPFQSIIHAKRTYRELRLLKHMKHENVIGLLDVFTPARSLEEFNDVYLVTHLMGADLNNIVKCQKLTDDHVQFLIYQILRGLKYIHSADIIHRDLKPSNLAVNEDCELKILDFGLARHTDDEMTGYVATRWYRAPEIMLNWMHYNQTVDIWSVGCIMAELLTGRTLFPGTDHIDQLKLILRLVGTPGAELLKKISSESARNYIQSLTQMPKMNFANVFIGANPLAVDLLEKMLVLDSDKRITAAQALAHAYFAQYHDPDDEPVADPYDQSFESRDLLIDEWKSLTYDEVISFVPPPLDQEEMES
T4 sequence (O43353 whole entry): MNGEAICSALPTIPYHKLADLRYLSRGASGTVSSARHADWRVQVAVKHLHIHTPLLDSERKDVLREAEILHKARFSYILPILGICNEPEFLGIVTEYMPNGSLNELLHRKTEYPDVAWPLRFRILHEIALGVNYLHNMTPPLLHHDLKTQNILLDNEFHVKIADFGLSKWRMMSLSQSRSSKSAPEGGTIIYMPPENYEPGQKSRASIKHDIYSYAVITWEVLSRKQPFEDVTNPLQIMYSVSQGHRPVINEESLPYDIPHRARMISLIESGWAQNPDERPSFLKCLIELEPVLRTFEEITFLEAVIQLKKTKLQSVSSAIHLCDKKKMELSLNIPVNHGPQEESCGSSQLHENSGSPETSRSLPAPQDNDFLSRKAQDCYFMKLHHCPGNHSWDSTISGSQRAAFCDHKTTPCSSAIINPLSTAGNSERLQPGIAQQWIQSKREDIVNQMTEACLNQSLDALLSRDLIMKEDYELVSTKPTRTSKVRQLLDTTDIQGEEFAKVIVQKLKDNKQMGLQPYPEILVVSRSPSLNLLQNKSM

Compound CC(C)c1cc(-c2n[nH]c(=O)n2-c2ccc3c(ccn3C)c2)c(O)cc1O [Ganetespib (STA9090)] has a remaining activity at 10 µM [1] of 83.1%, a remaining activity at 10 µM [2] of 89.6% and a remaining activity at 10 µM [3] of 73.4%. It also gave a remaining activity at 10 µM [4] of 71.3% and a remaining activity at 10 µM [5] of 108%.
CC(C)c1cc(-c2n[nH]c(=O)n2-c2ccc3c(ccn3C)c2)c(O)cc1O [Ganetespib] gave a remaining activity at 10 µM [6] of 56.7%, a remaining activity at 10 µM [7] of 55.7% and a remaining activity at 10 µM [8] of 2.65%. For the same compound, the remaining activity at 10 µM [9] was 98.6% and the remaining activity at 10 µM [10] was 90.7%.
For CCNC(=O)c1noc(-c2cc(C(C)C)c(O)cc2O)c1-c1ccc(CN2CCOCC2)cc1 [Luminespib (AUY-922)], the “% Enzyme Activity (relative to DMSO controls)” value [1] was 91.38%, the remaining activity at 10 µM [1] was 91.7% and the “% Enzyme Activity (relative to DMSO controls)” value [2] was 90.33%. For the same compound, the remaining activity at 10 µM [2] was 95.1%, the “% Enzyme Activity (relative to DMSO controls)” value [3] was 103.86% and the remaining activity at 10 µM [3] was 105%. The “% Enzyme Activity (relative to DMSO controls)” value [4] was 109.60%, the remaining activity at 10 µM [4] was 112% and the “% Enzyme Activity (relative to DMSO controls)” value [5] was 104.43%. The remaining activity at 10 µM [5] was 105%.
With CCNC(=O)c1noc(-c2cc(C(C)C)c(O)cc2O)c1-c1ccc(CN2CCOCC2)cc1 [Luminespib] the “% Enzyme Activity (relative to DMSO controls)” value [6] was 93.87%, the remaining activity at 10 µM [6] was 94.8% and the “% Enzyme Activity (relative to DMSO controls)” value [7] was 90.09%. For the same compound, the remaining activity at 10 µM [7] was 90.3%, the “% Enzyme Activity (relative to DMSO controls)” value [8] was 85.24% and the remaining activity at 10 µM [8] was 90.4%. The “% Enzyme Activity (relative to DMSO controls)” value [9] was 91.15%, the remaining activity at 10 µM [9] was 92.4% and the “% Enzyme Activity (relative to DMSO controls)” value [10] was 101.35%. It also gave a remaining activity at 10 µM [10] of 101%.

From publication PMC8550792, “Evolution of kinase polypharmacology across HSP90 drug discovery” (Cell Chemical Biology, 2021)
